The results in this text go back to patent publication US20100130477A1, “Spirocyclobutyl Piperidine Derivatives” (ASTRAZENECA AB, priority 2008, published 2010).

For orientation: IC50 means the midpoint of a concentration-inhibition curve. A lower IC50 goes with greater potency.

The target in this test is T1, human Histamine H3 receptor (hH3R) (Homo sapiens, UniProt Q9Y5N1).
T1 construct: expressed in transfected cells; host or cells: CHO cells (Chinese Hamster Ovary); membranes
T1 sequence (Q9Y5N1 whole entry): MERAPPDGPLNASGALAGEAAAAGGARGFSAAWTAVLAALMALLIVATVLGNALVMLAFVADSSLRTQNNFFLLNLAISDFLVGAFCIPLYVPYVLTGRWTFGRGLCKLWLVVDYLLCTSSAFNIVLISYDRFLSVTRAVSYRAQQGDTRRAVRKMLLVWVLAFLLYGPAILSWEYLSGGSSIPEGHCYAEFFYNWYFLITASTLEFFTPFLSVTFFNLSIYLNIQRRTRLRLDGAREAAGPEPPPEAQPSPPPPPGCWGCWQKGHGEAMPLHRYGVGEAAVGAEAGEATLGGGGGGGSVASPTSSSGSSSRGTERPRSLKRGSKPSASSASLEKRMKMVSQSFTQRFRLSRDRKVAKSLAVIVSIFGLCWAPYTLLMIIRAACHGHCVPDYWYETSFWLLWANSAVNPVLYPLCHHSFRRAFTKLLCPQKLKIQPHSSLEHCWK
Kind of test: GTPγS Binding Assay (antagonist activity, [35S]GTPγS, (R)-α-methyl histamine 30 nM). The class given is biochemical. The following applies: membranes from CHO cells expressing hH3R, 90 minutes at room temperature. On the procedure:
Guanosine 5′-O-(3-[^35S]thio)triphosphate [GTPγS] Binding Assay
A GTPγS binding assay can be used to investigate antagonist properties of compounds in CHO cells (Chinese Hamster Ovary) transfected with human Histamine H3 receptor (hH3R). Membranes from CHO cells expressing hH3R (10 μg/well) are diluted in GTPγS assay buffer (20 mM Hepes, 10 mM MgCl2, 100 mM NaCl, pH 7.4) and preincubated with saponine (3 μg/ml), GDP (10 μM) and PVT-WGA SPA beads (125 μg/well) (Amersham) for 30 minutes. To determine antagonist activity, (R)-α-methyl histamine (30 nM) is added in 96 well SPA plate with [^35S]GTPγS (0.2 nM) and various concentration of H3R antagonists. The GTPγS binding assay is started with addition of the mixture membrane/saponine/GDP and incubated for 90 minutes at room temperature. The amount of bound [^35S]GTPγS is determined by using the MicroBeta Trilux counter (PerkinElmer). The percentage of [^35S]GTPγS bound in each sample is calculated as a percentage of that bound control sample incubated in absence of H3 antagonist. Duplicate determinations are obtained for each concentration, and the data are analyzed using ExcelFit4 to obtain the IC50.
As for `CS(=O)(=O)N1CCC2(CC1)CC(C(=O)N1CCN(C3CCC3)CC1)C2` [Example 5, (4-cyclobutylpiperazin-1-yl)(7-(methylsulfonyl)-7-azaspiro[3.5]nonan-2-yl)methanone], the IC50 turned out to be 7.29 nM. In other words, the single-digit nanomolar range.
Compound `O=C(c1ncc(F)cc1F)N1CCC2(CC1)CC(C(=O)N1CCN(C3CCC3)CC1)C2` [Example 16, (4-cyclobutylpiperazin-1-yl)(7-(3,5-difluoropicolinoyl)-7-azaspiro[3.5]nonan-2-yl)methanone] yielded an IC50 of 80.4 nM.
Regarding `O=C(C1CC2(CCN(c3ccccc3)CC2)C1)N1CCN(C2CCC2)CC1` [Example 3, (4-cyclobutylpiperazin-1-yl)(7-phenyl-7-azaspiro[3.5]nonan-2-yl)methanone], the IC50 was 72.9 nM.
With `O=C(C1CC2(CCN(c3cncnc3)CC2)C1)N1CCN(C2CCC2)CC1` [Example 67, (4-cyclobutylpiperazin-1-yl)(7-(pyrimidin-5-yl)-7-azaspiro[3.5]nonan-2-yl)methanone] the figure was 22.9 nM.
Under `O=C(Cc1cccnc1)N1CCC2(CC1)CC(C(=O)N1CCN(C3CCC3)CC1)C2` [Example 27, 1-(2-(4-cyclobutylpiperazine-1-carbonyl)-7-azaspiro[3.5]nonan-7-yl)-2-(pyridin-3-yl)ethanone] stands 12.6 nM; under `CCc1cnccc1C(=O)N1CCC2(CC1)CC(C(=O)N1CCN(C3CCC3)CC1)C2` [Example 8, (4-cyclobutylpiperazin-1-yl)(7-(3-ethylisonicotinoyl)-7-azaspiro[3.5]nonan-2-yl)methanone], 22.9 nM; under `CC(C)N1CCCN(C(=O)C2CC3(CCN(C(=O)c4ccncc4)CC3)C2)CC1` [Example 54, (7-isonicotinoyl-7-azaspiro[3.5]nonan-2-yl)(4-isopropyl-1,4-diazepan-1-yl)methanone], 161 nM.
Consider `O=C(Nc1ccccc1)N1CCC2(CC1)CC(C(=O)N1CCN(C3CCC3)CC1)C2` [Example 32, 2-(4-cyclobutylpiperazine-1-carbonyl)-N-phenyl-7-azaspiro[3.5]nonane-7-carboxamide], for which the IC50 came out at 47.7 nM.
In the case of `Cc1cc(C(=O)N2CCC3(CC2)CC(C(=O)N2CCCN(C4CCC4)CC2)C3)ccn1` [Example 43, (4-cyclobutyl-1,4-diazepan-1-yl)(7-(2-methylisonicotinoyl)-7-azaspiro[3.5]nonan-2-yl)methanone], the IC50 came to 8.87 nM. Compared with the last compound, the IC50 is about 5.4-fold lower.
Under `CC(C)N1CCCN(C(=O)C2CC3(CCN(C(=O)N(C)C)CC3)C2)CC1` [Example 56, 2-(4-isopropyl-1,4-diazepane-1-carbonyl)-N,N-dimethyl-7-azaspiro[3.5]nonane-7-carboxamide] stands 269 nM.
Compound `CC(C)N1CCN(C(=O)C2CC3(CCN(C(=O)c4ccncc4)CC3)C2)CC1` [Example 35, (7-isonicotinoyl-7-azaspiro[3.5]nonan-2-yl)(4-isopropylpiperazin-1-yl)methanone] returned an IC50 of 61.9 nM. Compared with the last compound, the IC50 is about 4.3-fold lower.
Under `CC(C)N1CCN(C(=O)C2CC3(CCN(S(C)(=O)=O)CC3)C2)C[C@H]1C` [Example 60, ((R)-4-isopropyl-3-methylpiperazin-1-yl)(7-(methylsulfonyl)-7-azaspiro[3.5]nonan-2-yl)methanone] stands 177 nM.
Under `CC(C)N1CCN(C(=O)C2CC3(CCN(S(C)(=O)=O)CC3)C2)C[C@@H]1C` [Example 61, ((S)-4-isopropyl-3-methylpiperazin-1-yl)(7-(methylsulfonyl)-7-azaspiro[3.5]nonan-2-yl)methanone] stands 179 nM; under `CC(C)N1CCCN(C(=O)C2CC3(CCN(C(=O)c4cccnc4)CC3)C2)CC1` [Example 55, (4-isopropyl-1,4-diazepan-1-yl)(7-nicotinoyl-7-azaspiro[3.5]nonan-2-yl)methanone], 115 nM.
Under `Cc1ccc(C(=O)N2CCC3(CC2)CC(C(=O)N2CCN(C4CCC4)CC2)C3)cn1` [Example 12, (4-cyclobutylpiperazin-1-yl)(7-(6-methylnicotinoyl)-7-azaspiro[3.5]nonan-2-yl)methanone] stands 26.2 nM; under `O=C(c1ccccc1)N1CCC2(CC1)CC(C(=O)N1CCCN(C3CCC3)CC1)C2` [Example 48, (7-benzoyl-7-azaspiro[3.5]nonan-2-yl)(4-cyclobutyl-1,4-diazepan-1-yl)methanone], 12.7 nM.
In turn, `Cc1cnccc1C(=O)N1CCC2(CC1)CC(C(=O)N1CCCN(C3CCC3)CC1)C2` [Example 44, (4-cyclobutyl-1,4-diazepan-1-yl)(7-(3-methylisonicotinoyl)-7-azaspiro[3.5]nonan-2-yl)methanone] gave an IC50 of 8.45 nM. Compared with the last compound, the IC50 is about 1.5-fold lower.
Under `O=C(Cc1ccncc1)N1CCC2(CC1)CC(C(=O)N1CCN(C3CCC3)CC1)C2` [Example 28, 1-(2-(4-cyclobutylpiperazine-1-carbonyl)-7-azaspiro[3.5]nonan-7-yl)-2-(pyridin-4-yl)ethanone] stands 13.8 nM; under `N#Cc1cccc(C(=O)N2CCC3(CC2)CC(C(=O)N2CCN(C4CCC4)CC2)C3)c1` [Example 31, 3-(2-(4-cyclobutylpiperazine-1-carbonyl)-7-azaspiro[3.5]nonane-7-carbonyl)benzonitrile], 24.5 nM.
`O=C(c1ccccn1)N1CCC2(CC1)CC(C(=O)N1CCN(C3CCC3)CC1)C2` [Example 20, (4-cyclobutylpiperazin-1-yl)(7-picolinoyl-7-azaspiro[3.5]nonan-2-yl)methanone]: the IC50 was determined as 48 nM.
With `O=C(c1cc(Cl)ccn1)N1CCC2(CC1)CC(C(=O)N1CCN(C3CCC3)CC1)C2` [Example 17, (7-(4-chloropicolinoyl)-7-azaspiro[3.5]nonan-2-yl)(4-cyclobutylpiperazin-1-yl)methanone] the figure was 35 nM.
With `COc1cc(C(=O)N2CCC3(CC2)CC(C(=O)N2CCN(C4CCC4)CC2)C3)ccn1` [Example 26, (4-cyclobutylpiperazin-1-yl)(7-(2-methoxyisonicotinoyl)-7-azaspiro[3.5]nonan-2-yl)methanone], the IC50 was 23.8 nM.
With `Cc1ccncc1C(=O)N1CCC2(CC1)CC(C(=O)N1CCN(C3CCC3)CC1)C2` [Example 14, (4-cyclobutylpiperazin-1-yl)(7-(4-methylnicotinoyl)-7-azaspiro[3.5]nonan-2-yl)methanone] the figure was 41.5 nM; with `O=C(C1CC2(CCN(c3ccncc3)CC2)C1)N1CCN(C2CCC2)CC1` [Example 66, (4-cyclobutylpiperazin-1-yl)(7-(pyridin-4-yl)-7-azaspiro[3.5]nonan-2-yl)methanone], 10.1 nM.
Under `O=C(c1ccncc1)N1CCC2(CC1)CC(C(=O)N1CCCN(C3CCC3)CC1)C2` [Example 45, (4-cyclobutyl-1,4-diazepan-1-yl)(7-isonicotinoyl-7-azaspiro[3.5]nonan-2-yl)methanone] stands 7.61 nM.
Under `O=C(C1CC2(CCN(c3ccccn3)CC2)C1)N1CCN(C2CCC2)CC1` [Example 2, (4-cyclobutylpiperazin-1-yl)(7-(pyridin-2-yl)-7-azaspiro[3.5]nonan-2-yl)methanone] stands 27 nM; under `C[C@@H]1CN(C2CCC2)CCN1C(=O)C1CC2(CCN(S(C)(=O)=O)CC2)C1` [Example 62, ((R)-4-cyclobutyl-2-methylpiperazin-1-yl)(7-(methylsulfonyl)-7-azaspiro[3.5]nonan-2-yl)methanone], 4.25 nM; under `Cc1cncc(C(=O)N2CCC3(CC2)CC(C(=O)N2CCCN(C4CCC4)CC2)C3)c1` [Example 46, (4-cyclobutyl-1,4-diazepan-1-yl)(7-(5-methylnicotinoyl)-7-azaspiro[3.5]nonan-2-yl)methanone], 5.75 nM.
As to `O=C(c1ccccn1)N1CCC2(CC1)CC(C(=O)N1CCCN(C3CCC3)CC1)C2` [Example 42, (4-cyclobutyl-1,4-diazepan-1-yl)(7-picolinoyl-7-azaspiro[3.5]nonan-2-yl)methanone], the IC50 was 15 nM.
The compound `C[C@H]1CN(C2CCC2)CCN1C(=O)C1CC2(CCN(S(C)(=O)=O)CC2)C1` [Example 63, ((S)-4-cyclobutyl-2-methylpiperazin-1-yl)(7-(methylsulfonyl)-7-azaspiro[3.5]nonan-2-yl)methanone] gave an IC50 of 21.2 nM.
Under `Cc1cc(C(=O)N2CCC3(CC2)CC(C(=O)N2CCCN(C(C)C)CC2)C3)ccn1` [Example 53, (4-isopropyl-1,4-diazepan-1-yl)(7-(2-methylisonicotinoyl)-7-azaspiro[3.5]nonan-2-yl)methanone] stands 160 nM; under `CS(=O)(=O)N1CCC2(CC1)CC(C(=O)N1CCN(C3CCCC3)CC1)C2` [Example 58, (4-cyclopentylpiperazin-1-yl)(7-(methylsulfonyl)-7-azaspiro[3.5]nonan-2-yl)methanone], 63 nM.
With `O=C(C1CC2(CCN(S(=O)(=O)c3ccc(F)cc3)CC2)C1)N1CCCN(C2CCC2)CC1` [Example 38, (4-cyclobutyl-1,4-diazepan-1-yl)(7-(4-fluorophenylsulfonyl)-7-azaspiro[3.5]nonan-2-yl)methanone] the figure was 8.9 nM.
